Measured values reported in patent US11203582B2, “Benzamide derivatives for inhibiting endoplasmic reticulum (ER) stress” (The Board of Regents of the University of Oklahoma, priority 2017, dated 2021).

Test system: Bip mRNA
Assay: qRT-PCR of Bip mRNA in Tm-treated INS-1 cells
Assay type: cell-based, rat
Conditions: Tm 0.1 μg/mL co-treatment, 8 h
Procedure: INS-1 cells were treated with or without Tm (0.1 μg/mL) in the presence of 13d or DMSO for 8 h. Bip (A) and GRP94 (B) mRNA levels were analyzed by qRT-PCR. Relative mRNA levels were normalized against the housekeeping gene Cyclophilin A using the comparative CT method. The results are the means of 3 replicate wells and representative of 3 independent experiments. ** P<0.01 compared with Tm treatment alone. Error bars indicate SD.
We then investigated the effects of 13d on the activation of ATF6 in β-cells under ER stress. Activated ATF6 acts as a homodimer or as an ATF6-XBP1s heterodimer to control the up-regulation of select UPR target genes including the chaperone proteins BiP and GRP94. Therefore, these two chaperone proteins were evaluated in the INS-1 cells in the presence of Tm.
INS-1 cells were seeded at 4×10^5 cells/well in 6-well plates and treated with compounds for the indicated times. Total RNA was extracted using TRIzol reagent (Invitrogen, Carlsbad, Calif.) according to the manufacturer's protocol, and 2 μg of total RNA was reverse transcribed using a Superscript kit (Invitrogen). […] Relative mRNA levels were normalized against the housekeeping gene Cyclophilin A and were determined by ΔΔCt calculated from the difference in ΔCt values between the target gene and Cyclophilin A with and without treatment, based on comparative CT (cycle threshold) method. […]

O=C(NCc1ccc(C(F)(F)F)cc1)c1cccc(CN2CCCCC2)c1 [Compound 13d, N-(4-trifluoromethylphenmethyl)-3-(N-piperidinyl)methyl benzamide]
Tm-induced up-regulation of Bip mRNA: almost completely reversed
